Measured values as given in patent US20060020004A1, “Isoxazolidine compounds for treatment of bacterial infections” (Infinity Pharmaceuticals, Inc., priority 2004, published 2006).
In brackets after ≈: the same amount, converted by molar mass.

Experiments:
[1] = system: Enterococcus faecalis ATCC 29212; test: MIC determination, E. faecalis; format: cell-based; conditions: ATCC 29212, 24 h
Description: (§1) Susceptibility testing for bacterial cultures is performed according to the National Council for Clinical Laboratory Standards (NCCLS) protocol M100-S12, “Performance Standards for Antimicrobial Susceptibility Testing.” The bacterial strains recommended by NCCLS were obtained from the American Type Culutre Collection (ATCC) (Table) and were maintained on Mueller Hinton (MHA) agar plates plus or minus 3% lysed horse blood (see Table). The bacteria were grown in Cation adjusted Mueller Hinton Broth (CaMHB) for liquid growth and susceptibility testing. S. cerevisiae (yeast) is grown in yeast peptone dextrose (YPD) media.
(§2) All bacterial cultures were grown at 37 degrees Celsius. Fresh colonies of S. aureus and MRSA were inoculated into liquid media and grown overnight and diluted the next day to grow to mid-log (Table 2). E. faecalis and S. pneumonia mid-log cultures were started directly from colony on plates. To attain mid-log growth, cultures were grown to an optical density (OD) at A590 of 0.2-0.8 (see Table 2) and then diluted to proper OD to obtain 5×10^5 cells/mL.
(§3) Diluted bacterial cultures are added to compound plates with compound diluted 2-fold from 100 μg/mL to 0.2 μg/mL final concentration in DMSO. Control antibiotics are also added: vancomycin, linezolid, and penicillin. In 384 well plates, 0.5 μL compound is added followed by addition of 50 μL of culture. DMSO alone is included as a control. Plates incubated at 37 degrees Celsius for 17-24 h.
(§4) Plates with cells mixed with compounds are incubated for 17 h for S. aureus and yeast, 24 h for MRSA, and all Enterococcus and Streptococcus strains. Yeast plates are incubated […].
(§5) Viability is determined by reading plates at A590 to determine optical density of treated and untreated cells and determining growth inhibition relative to controls.

[2] = system: Methicillin resistant S. aureus ATCC 33591; test: MIC determination, MRSA; format: cell-based, Staphylococcus aureus; conditions: MRSA ATCC 33591, 24 h; for MIC: Staphylococcus aureus
Description: as §1, §2, §3, §4, §5

[3] = system: Penicillin-res. S. pneumonia ATCC 700671; test: MIC determination, PRSP; format: cell-based, Streptococcus pneumonia; conditions: ATCC 700671, 24 h; for MIC: Streptococcus pneumoniae
Description: as §1, §2, §3, §4, §5

[4] = system: Staphylococcus aureus (Smith) ATCC 19636; test: MIC determination, S. aureus; format: cell-based; conditions: S. aureus ATCC 19636, 17 h; for MIC: Staphylococcus aureus, ATCC19636
Description: as §1, §2, §3, §4, §5

[5] = system: Streptococcus pneumonia ATCC 49619; test: MIC determination, S. pneumonia; format: cell-based; conditions: for MIC S. pneuomiae: ATCC 49619, 24 h; for MIC: Streptococcus pneumoniae, ATCC49619, 24 h, read-out: MIC S. pneuomiae
Description: as §1, §2, §3, §4, §5

[6] = system: Van-intermediate E. faecalis ATCC 51299 / Van-resistant E. faecalis ATCC 700221; test: MIC determination, VIRE/VRE; format: cell-based, Enterococcus faecalis; conditions: ATCC 51299 / 700221, 24 h
Description: The MICs were determined using a broth micro-dilution assay in accordance with that recommended by the National Committee for Clinical Laboratory Standards (NCCLS). The final bacterial inoculate contained approximately 5×10^5 cfu/mL and the plates were incubated at 35° C. for 18 h in ambient air (Streptococci in 5% CO2). The MIC was defined as the lowest drug concentration that prevented visible growth.
as §1, §2, §3, §4, §5

S. cerevisiae Δpdr5 = test: MIC determination, yeast; format: cell-based; conditions: YPD, 30 degrees Celsius
Description: as §1, §3
Yeast cultures are started from a fresh colony into YPD media and then diluted to OD of 0.002. Diluted yeast is added to compound plates as bacteria but incubated at 30 degrees Celsius for 17 h. Controls are amphotericin B and voriconazole.
as §4, §5

SMILES	MIC ([1]; Enterococcus faecalis, ATCC29212)	MIC [2]	MIC [3]	MIC [4]	MIC S. pneuomiae [5]	MIC VIRE/VRE [6]	MIC E. faecalis [1]	MIC MRSA [2]	MIC PRSP [3]	MIC S. cerevisiae Δpdr5 (S. cerevisiae Δpdr5)	MIC S. aureus [4]	MIC [5]
Cc1ccc(C#Cc2ccc(CN3O[C@H]([C@@H](C)O)[C@H](CO)[C@@H]3C(=O)NCCCNC(=O)OC(C)(C)C)cc2)cc1	5 to 90 µg/mL (≈ 9.06 to 163 µM)	5 to 90 µg/mL (≈ 9.06 to 163 µM)	5 to 90 µg/mL (≈ 9.06 to 163 µM)	5 to 90 µg/mL (≈ 9.06 to 163 µM)	–	–	–	–	–	–	–	–
CC(O)C1ON(Cc2ccc(C#Cc3ccc(Cl)cc3)cc2)C(C(=O)NCCc2c[nH]c3ccccc23)C1CO (stereo not drawn)	–	–	–	–	** (the MIC is 5-90 μg/mL)	** (the MIC is 5-90 μg/mL)	** (the MIC is 5-90 μg/mL)	*** (the MIC is less than 5 μg/mL)	** (the MIC is 5-90 μg/mL)	** (the MIC is 5-90 μg/mL)	*** (the MIC is less than 5 μg/mL)	–
Cc1ccc(CCc2ccc(CN3OC(C(C)O)C(CO)C3C(=O)NCCc3c[nH]c4ccccc34)cc2)cc1 (stereo not drawn)	–	–	–	–	** (the MIC is 5-90 μg/mL)	–	–	*** (the MIC is less than 5 μg/mL)	** (the MIC is 5-90 μg/mL)	–	*** (the MIC is less than 5 μg/mL)	–
CC(O)C1ON(Cc2cccc(C#Cc3ccc(Cl)cc3)c2)C(C(=O)NCCc2c[nH]c3ccccc23)C1CO (stereo not drawn)	–	–	–	–	** (the MIC is 5-90 μg/mL)	** (the MIC is 5-90 μg/mL)	** (the MIC is 5-90 μg/mL)	*** (the MIC is less than 5 μg/mL)	** (the MIC is 5-90 μg/mL)	** (the MIC is 5-90 μg/mL)	*** (the MIC is less than 5 μg/mL)	–
CC(O)C1ON(Cc2ccc(C=Cc3ccc(Cl)cc3)cc2)C(C(=O)NCCc2c[nH]c3ccccc23)C1CO (stereo not drawn)	–	–	–	–	** (the MIC is 5-90 μg/mL)	* (the MIC is >90 μg/mL)	*** (the MIC is less than 5 μg/mL)	*** (the MIC is less than 5 μg/mL)	** (the MIC is 5-90 μg/mL)	* (the MIC is >90 μg/mL)	*** (the MIC is less than 5 μg/mL)	–
CC(O)C1ON(Cc2ccc(C=Cc3ccc(C(F)(F)F)cc3)cc2)C(C(=O)NCCc2c[nH]c3ccccc23)C1CO (stereo not drawn)	–	–	–	–	** (the MIC is 5-90 μg/mL)	–	–	** (the MIC is 5-90 μg/mL)	** (the MIC is 5-90 μg/mL)	–	** (the MIC is 5-90 μg/mL)	–
Cc1ccc(C#Cc2ccc(CN3OC4CNCC4C3C(=O)NCCc3c[nH]c4ccccc34)cc2)cc1 (stereo not drawn)	–	5 to 90 µg/mL (≈ 9.91 to 178 µM)	5 to 90 µg/mL (≈ 9.91 to 178 µM)	5 to 90 µg/mL (≈ 9.91 to 178 µM)	–	–	–	–	–	–	–	5 to 90 µg/mL (≈ 9.91 to 178 µM)
Cc1ccc(C#Cc2ccc(CN3OC(C(C)O)C(CO)C3C(=O)NCCc3c[nH]c4ccccc34)cc2)cc1 (stereo not drawn) [drawing 205]	–	–	–	–	** (the MIC is 5-90 μg/mL)	** (the MIC is 5-90 μg/mL)	** (the MIC is 5-90 μg/mL)	*** (the MIC is less than 5 μg/mL)	** (the MIC is 5-90 μg/mL)	** (the MIC is 5-90 μg/mL)	*** (the MIC is less than 5 μg/mL)	–
Cc1ccc(C#Cc2ccc(CN3O[C@H]([C@@H](C)O)[C@H](CO)[C@@H]3CNCCc3c[nH]c4ccccc34)cc2)cc1.Cl	–	5 to 90 µg/mL	> 90 µg/mL	5 to 90 µg/mL	–	–	–	–	–	–	–	> 90 µg/mL
Cc1ccc(C=Cc2ccc(CN3OC(C(C)O)C(CO)C3C(=O)NCCc3c[nH]c4ccccc34)cc2)cc1 (stereo not drawn)	–	–	–	–	** (the MIC is 5-90 μg/mL)	–	–	** (the MIC is 5-90 μg/mL)	** (the MIC is 5-90 μg/mL)	–	** (the MIC is 5-90 μg/mL)	–
CC(O)C1ON(Cc2ccc(CCc3ccc(Cl)cc3)cc2)C(C(=O)NCCc2c[nH]c3ccccc23)C1CO (stereo not drawn)	–	–	–	–	** (the MIC is 5-90 μg/mL)	–	–	** (the MIC is 5-90 μg/mL)	** (the MIC is 5-90 μg/mL)	–	** (the MIC is 5-90 μg/mL)	–
CCOCCCNC(=O)[C@H]1[C@@H](CO)[C@@H]([C@@H](C)O)ON1Cc1ccc(C#Cc2ccc(C)cc2)cc1	–	–	5 to 90 µg/mL (≈ 10.4 to 187 µM)	5 to 90 µg/mL (≈ 10.4 to 187 µM)	–	–	–	–	–	–	–	5 to 90 µg/mL (≈ 10.4 to 187 µM)
CC(O)C1ON(CC2CCCCC2)C(C(=O)NCCc2c[nH]c3ccccc23)C1CO (stereo not drawn)	–	–	–	–	–	–	** (the MIC is 5-90 μg/mL)	* (the MIC is >90 μg/mL)	* (the MIC is >90 μg/mL)	–	** (the MIC is 5-90 μg/mL)	–
CC(=O)c1ccc(-c2ccc(CN3OC(C(C)O)C(CO)C3C(=O)NCCc3c[nH]c4ccccc34)cc2)cc1 (stereo not drawn)	–	–	–	–	–	–	** (the MIC is 5-90 μg/mL)	** (the MIC is 5-90 μg/mL)	* (the MIC is >90 μg/mL)	–	** (the MIC is 5-90 μg/mL)	–
Cc1ccc(C#Cc2ccc(CN3OC(C(C)O)C(CO)C3C(=O)NCCc3cnc[nH]3)cc2)cc1 (stereo not drawn)	–	–	–	–	* (the MIC is >90 μg/mL)	–	–	** (the MIC is 5-90 μg/mL)	–	–	* (the MIC is >90 μg/mL)	–
CC(O)C1ON(Cc2ccccc2)C(C(=O)NCCc2c[nH]c3ccccc23)C1CO (stereo not drawn)	–	–	–	–	* (the MIC is >90 μg/mL)	** (the MIC is 5-90 μg/mL)	** (the MIC is 5-90 μg/mL)	** (the MIC is 5-90 μg/mL)	* (the MIC is >90 μg/mL)	** (the MIC is 5-90 μg/mL)	** (the MIC is 5-90 μg/mL)	–
Cc1ccc(C#Cc2cccc(CN3OC(C(C)O)C(CO)C3C(=O)NCCc3c[nH]c4ccccc34)c2)cc1 (stereo not drawn)	–	–	–	–	** (the MIC is 5-90 μg/mL)	** (the MIC is 5-90 μg/mL)	** (the MIC is 5-90 μg/mL)	*** (the MIC is less than 5 μg/mL)	** (the MIC is 5-90 μg/mL)	** (the MIC is 5-90 μg/mL)	*** (the MIC is less than 5 μg/mL)	–
CC(O)C1ON(Cc2ccc(C=Cc3ccccc3)cc2)C(C(=O)NCCc2c[nH]c3ccccc23)C1CO (stereo not drawn) [drawing 219]	–	–	–	–	** (the MIC is 5-90 μg/mL)	* (the MIC is >90 μg/mL)	* (the MIC is >90 μg/mL)	** (the MIC is 5-90 μg/mL)	** (the MIC is 5-90 μg/mL)	–	*** (the MIC is less than 5 μg/mL)	–
